# Test results from ChEMBL document CHEMBL4402543, “Bioisosteric Development of Multitarget Nonsteroidal Anti-Inflammatory Drug-Carbonic Anhydrases Inhibitor Hybrids for the Management of Rheumatoid Arthritis” (J Med Chem, 2020).
# Calls of active or inactive are those of the source.
# Assays:
# [1] = molecular target: Carbonic anhydrase 7 (Homo sapiens) (UniProt P43166)
# Description: Inhibition of human CA7 pre-incubated for 6 hrs by stopped- flow CO2 hydrase assay method based Cheng-Prusoff equation analysis
# Rattus norvegicus [2] = test: Antihyperalgesic activity in Sprague-Dawley rat model of Complete freund's adjuvant-induced arthritis assessed as increase in pain threshold of ipsilateral paw at 10 mg/kg, po starting from day 14 after CFA injection and measured at 15 mins by paw pressure test; type: functional, organism-based
# Rattus norvegicus [3] = test: Antihyperalgesic activity in Sprague-Dawley rat model of Complete freund's adjuvant-induced arthritis assessed as pain threshold of ipsilateral paw at 30 mg/kg, po starting from day 14 after CFA injection and measured at 30 mins by paw pressure test (reference value: 40.1 +/- 0.7 g); type: functional
# Rattus norvegicus [4] = test: (§1) Antihyperalgesic activity in Sprague-Dawley rat model of Complete freund's adjuvant-induced arthritis assessed as reduction in difference between weight burdened on contralateral and ipsilateral paw at 10 mg/kg, po starting from day 14 after CFA injection and measured at 30 mins incapacitance test; type: functional, organism-based
# [5] = molecular target: Carbonic anhydrase 9 (Homo sapiens) (UniProt Q16790)
# Description: Inhibition of human CA9 pre-incubated for 6 hrs by stopped- flow CO2 hydrase assay method based Cheng-Prusoff equation analysis
# Rattus norvegicus [6] = test: Antihyperalgesic activity in Sprague-Dawley rat model of Complete freund's adjuvant-induced arthritis assessed as effect on pain threshold of ipsilateral paw at 30 mg/kg, po starting from day 14 after CFA injection and measured at 60 mins by paw pressure test; type: functional, organism-based
# Rattus norvegicus [7] = test: Antihyperalgesic activity in Sprague-Dawley rat model of Complete freund's adjuvant-induced arthritis assessed as increase in pain threshold of ipsilateral paw at 10 mg/kg, po starting from day 14 after CFA injection and measured at 30 mins by paw pressure test; type: functional
# [8] = molecular target: Carbonic anhydrase 4 (Homo sapiens) (UniProt P22748)
# Chain of Carbonic anhydrase 4 (Homo sapiens) (P22748 whole entry): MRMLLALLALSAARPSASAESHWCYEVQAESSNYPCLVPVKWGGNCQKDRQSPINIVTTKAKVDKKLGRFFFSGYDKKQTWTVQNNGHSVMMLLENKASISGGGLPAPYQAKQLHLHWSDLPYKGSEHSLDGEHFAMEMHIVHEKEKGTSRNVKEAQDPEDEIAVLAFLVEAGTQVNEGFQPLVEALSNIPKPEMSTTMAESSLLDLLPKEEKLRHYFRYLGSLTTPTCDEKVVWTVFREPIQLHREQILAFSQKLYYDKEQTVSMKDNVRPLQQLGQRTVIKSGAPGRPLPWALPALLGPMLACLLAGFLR
# Description: Inhibition of human CA4 pre-incubated for 6 hrs by stopped- flow CO2 hydrase assay method based Cheng-Prusoff equation analysis
# Rattus norvegicus [9] = test: Antihyperalgesic activity in Sprague-Dawley rat model of Complete freund's adjuvant-induced arthritis assessed as increase in pain threshold of ipsilateral paw at 10 mg/kg, po starting from day 14 after CFA injection and measured at 45 mins by paw pressure test; type: functional, organism-based
# Rattus norvegicus [10] = test: Antihyperalgesic activity in Sprague-Dawley rat model of Complete freund's adjuvant-induced arthritis assessed as pain threshold of ipsilateral paw at 3 mg/kg, po starting from day 14 after CFA injection and measured at 30 mins by paw pressure test (reference value: 40.1 +/- 0.7 g); type: functional
# Rattus norvegicus [11] = test: Antihyperalgesic activity in Sprague-Dawley rat model of Complete freund's adjuvant-induced arthritis assessed as increase in pain threshold of ipsilateral paw at 3 to 30 mg/kg, po starting from day 14 after CFA injection and measured at 0 to 60 mins by paw pressure test; type: functional, organism-based
# [12] = Half life in human plasma by LC-MS/MS analysis; type: ADME, cell-free
# Rattus norvegicus [13] = test: Antihyperalgesic activity in Sprague-Dawley rat model of Complete freund's adjuvant-induced arthritis assessed as pain threshold of ipsilateral paw at 30 mg/kg, po starting from day 14 after CFA injection and measured at 15 mins by paw pressure test (reference value: 40.1 +/- 0.7 g); type: functional
# Rattus norvegicus [14] = test: as §1, with “measured at 15 to 30 mins” for “measured at 30 mins”; type: functional, organism-based
# Rattus norvegicus [15] = test: (§2) Antihyperalgesic activity in Sprague-Dawley rat model of Complete freund's adjuvant-induced arthritis assessed as reduction in difference between weight burdened on contralateral and ipsilateral paw at 3 mg/kg, po starting from day 14 after CFA injection and measured at 30 mins incapacitance test; type: functional, organism-based
# [16] = molecular target: Carbonic anhydrase 12 (Homo sapiens) (UniProt O43570)
# Chain of Carbonic anhydrase 12 (Homo sapiens) (O43570 whole entry): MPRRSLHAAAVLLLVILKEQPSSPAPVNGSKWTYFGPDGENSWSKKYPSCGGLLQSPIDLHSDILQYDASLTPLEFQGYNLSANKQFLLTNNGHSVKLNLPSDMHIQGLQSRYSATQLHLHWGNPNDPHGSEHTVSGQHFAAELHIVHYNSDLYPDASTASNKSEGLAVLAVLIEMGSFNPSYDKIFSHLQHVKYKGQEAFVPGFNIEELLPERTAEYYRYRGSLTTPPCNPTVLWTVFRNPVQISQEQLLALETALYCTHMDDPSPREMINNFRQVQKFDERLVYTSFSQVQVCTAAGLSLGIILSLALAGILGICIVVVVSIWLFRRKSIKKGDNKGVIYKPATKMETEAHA
# Description: Inhibition of human CA12 pre-incubated for 6 hrs by stopped- flow CO2 hydrase assay method based Cheng-Prusoff equation analysis
# [17] = Half life in Sprague-Dawley rat plasma by LC-MS/MS analysis; type: ADME, cell-free
# Rattus norvegicus [18] = test: as §2, with “3 to 30” for “3”, “0 to 60” for “30”; type: functional, organism-based
# [19] = molecular target: Carbonic anhydrase 1 (Homo sapiens) (UniProt P00915)
# Chain of Carbonic anhydrase 1 (Homo sapiens) (P00915 2-261 limits assumed): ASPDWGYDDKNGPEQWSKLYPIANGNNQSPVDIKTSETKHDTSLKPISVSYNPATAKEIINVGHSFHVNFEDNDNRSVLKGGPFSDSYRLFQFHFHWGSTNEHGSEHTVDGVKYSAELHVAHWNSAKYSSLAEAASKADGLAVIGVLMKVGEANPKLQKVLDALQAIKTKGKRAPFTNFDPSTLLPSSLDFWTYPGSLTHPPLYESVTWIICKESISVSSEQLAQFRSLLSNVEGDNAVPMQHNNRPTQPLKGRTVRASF
# Description: Inhibition of human CA1 pre-incubated for 6 hrs by stopped- flow CO2 hydrase assay method based Cheng-Prusoff equation analysis
# Rattus norvegicus [20] = test: as §1, with “30” for “10”, “15 to 45” for “30”; type: functional, organism-based
# [21] = molecular target: Carbonic anhydrase 2 (Homo sapiens) (UniProt P00918)
# Description: Inhibition of human CA2 pre-incubated for 6 hrs by stopped- flow CO2 hydrase assay method based Cheng-Prusoff equation analysis
# Rattus norvegicus [22] = test: Antihyperalgesic activity in Sprague-Dawley rat model of Complete freund's adjuvant-induced arthritis assessed as pain threshold of ipsilateral paw at 30 mg/kg, po starting from day 14 after CFA injection and measured at 45 mins by paw pressure test (reference value: 40.1 +/- 0.7 g); type: functional
# [23] = molecular target: COX1 (Prostaglandin G/H synthase 1) (Homo sapiens, UniProt P23219); test: Inhibition of COX1 in human platelet rich plasma in assessed as inhibition of ADP-induced platelet aggregation at 10 uM incubated for 5 mins by turbidimetry based Born's method relative to control
# Chain of COX1 (Prostaglandin G/H synthase 1) (P23219 whole entry): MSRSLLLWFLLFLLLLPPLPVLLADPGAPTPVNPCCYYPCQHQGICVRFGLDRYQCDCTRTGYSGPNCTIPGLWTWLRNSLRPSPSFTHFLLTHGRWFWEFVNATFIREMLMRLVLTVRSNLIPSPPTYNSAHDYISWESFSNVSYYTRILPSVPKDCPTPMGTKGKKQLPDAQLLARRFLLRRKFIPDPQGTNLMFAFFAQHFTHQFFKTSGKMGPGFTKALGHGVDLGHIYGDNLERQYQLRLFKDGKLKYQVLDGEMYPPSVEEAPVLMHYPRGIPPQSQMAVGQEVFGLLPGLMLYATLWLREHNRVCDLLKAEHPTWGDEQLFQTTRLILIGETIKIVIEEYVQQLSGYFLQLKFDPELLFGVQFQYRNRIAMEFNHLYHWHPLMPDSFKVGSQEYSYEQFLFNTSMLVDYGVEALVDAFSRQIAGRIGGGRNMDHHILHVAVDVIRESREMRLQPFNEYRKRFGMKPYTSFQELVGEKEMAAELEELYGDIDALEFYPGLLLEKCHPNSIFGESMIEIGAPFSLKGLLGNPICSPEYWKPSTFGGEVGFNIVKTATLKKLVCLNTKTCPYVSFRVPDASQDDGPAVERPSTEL
# [24] = Stability in PBS; type: physicochemical; conditions: buffer
# Rattus norvegicus [25] = test: Antihyperalgesic activity in Sprague-Dawley rat model of Complete freund's adjuvant-induced arthritis assessed as increase in pain threshold of ipsilateral paw at 30 mg/kg, po starting from day 14 after CFA injection and measured at 0 to 60 mins by paw pressure test; type: functional, organism-based
# [26] = Solubility of the compound; type: physicochemical
# Rattus norvegicus [27] = test: Antihyperalgesic activity in Sprague-Dawley rat model of Complete freund's adjuvant-induced arthritis assessed as reduction in difference between weight burdened on contralateral and ipsilateral paw at 30 mg/kg, po starting from day 14 after CFA injection and measured at 30 mins incapacitance test; type: functional, organism-based
# Rattus norvegicus [28] = test: Antihyperalgesic activity in Sprague-Dawley rat model of Complete freund's adjuvant-induced arthritis assessed as reduction in difference between weight burdened on contralateral and ipsilateral paw at 13.4 mg/kg, po starting from day 14 after CFA injection and measured at 15 mins incapacitance test; type: functional, organism-based
# Rattus norvegicus [29] = test: Antihyperalgesic activity in Sprague-Dawley rat model of Complete freund's adjuvant-induced arthritis assessed as pain threshold of ipsilateral paw at 13.4 mg/kg, po starting from day 14 after CFA injection and measured at 15 mins by paw pressure test (reference value: 40.1 +/- 0.7 g); type: functional
# Rattus norvegicus [30] = test: Antihyperalgesic activity in Sprague-Dawley rat model of Complete freund's adjuvant-induced arthritis assessed as pain threshold of ipsilateral paw at 13.4 mg/kg, po starting from day 14 after CFA injection and measured at 30 mins by paw pressure test (reference value: 40.1 +/- 0.7 g); type: functional
# Chain of Carbonic anhydrase 7 (Homo sapiens) (P43166 whole entry): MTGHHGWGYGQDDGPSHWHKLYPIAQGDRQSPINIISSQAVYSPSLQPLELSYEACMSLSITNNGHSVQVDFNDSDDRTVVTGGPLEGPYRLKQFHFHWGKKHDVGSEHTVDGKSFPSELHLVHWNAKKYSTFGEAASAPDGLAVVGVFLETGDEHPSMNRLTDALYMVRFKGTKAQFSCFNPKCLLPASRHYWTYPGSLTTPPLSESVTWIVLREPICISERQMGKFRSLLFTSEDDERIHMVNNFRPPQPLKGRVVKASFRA
Ki [1] [nM],Ki [5] [nM],Ki [8] [nM],half-life [12] [min],Ki [16] [nM],half-life [17] [min],Ki [19] [nM],Ki [21] [nM],"inhibition at 5 min, 10 µM [23] [%]",Stability [24],Structure (SMILES),also measured
> 10000,36.9,2.3,31,83.1,4.7,> 10000,> 10000,5 to 30,Stable,CC(C(=O)OCCOc1ccc2oc(=O)ccc2c1)c1cccc(C(=O)c2ccccc2)c1 (racemic),Activity (Rattus norvegicus [2]): Active; Activity (Rattus norvegicus [3]): <=64.4 g; Activity (Rattus norvegicus [4]): Active; Activity (Rattus norvegicus [6]): inactive; Activity (Rattus norvegicus [7]): 100%; Activity (Rattus norvegicus [9]): inactive; Activity (Rattus norvegicus [10]): 49.4 g; Activity (Rattus norvegicus [11]): Dose-dependent effect; Activity (Rattus norvegicus [13]): <=53.8 g; Activity (Rattus norvegicus [14]): Active; Activity (Rattus norvegicus [15]): Active; Activity (Rattus norvegicus [18]): Dose-dependent effect; Activity (Rattus norvegicus [20]): Active; Activity (Rattus norvegicus [22]): <=50 g
> 10000,35.4,6.7,12,55.4,2.1,> 10000,> 10000,5 to 30,Stable,CC(C(=O)OCCOc1ccc2ccc(=O)oc2c1)c1cccc(C(=O)c2ccccc2)c1 (racemic),Activity (Rattus norvegicus [25]): inactive; solubility [26]: Insoluble; Activity (Rattus norvegicus [27]): Active
–,–,–,–,–,–,–,–,–,–,O=c1ccc2cc(OCCO)ccc2o1,Activity (Rattus norvegicus [28]): Active; Activity (Rattus norvegicus [29]): 51.7 g; Activity (Rattus norvegicus [30]): 18.4 g
